Results from patent US20170333515A1, “COMPOSITIONS AND METHODS FOR ENHANCING THE METABOLIC ACTIVITY OR STABILITY OF CURCUMIN” (priority 2015, published 2017).

Experiments:
in vitro [1] = conditions: both
Description: The objective of this study was to determine the stability of curcumin in human liver microsomes in the absence and presence of xanthohumol at a concentration of 1 μM.
(§1) Mixed-gender human liver microsomes (Lot #1210347) were purchased from XenoTech. The reaction mixture, minus cofactors, was prepared as described below. The test article was added into the reaction mixture at a final concentration of 1 μM. second experiment was also performed with 1 μM xanthohumol also present in the reaction mixture. The control compounds, testosterone and 7-hydroxycoumarin (7-HC), were run simultaneously with the test article in separate reactions. An aliquot of the reaction mixture (without cofactors) was equilibrated in a shaking water bath at 37° C. for 3 minutes. The reaction was initiated by the addition of cofactors, and the mixture was incubated in a shaking water bath at 37° C. Aliquots (100 μL) were withdrawn at 0, 10, 20, 30, and 60 minutes for the test article and 0, 10, 30, and 60 minutes for testosterone and 7-HC. All samples were immediately combined with 400 μL of ice-cold 50/50 acetonitrile/H2O containing 0.1% formic acid and internal standard to terminate the reaction. The samples were then mixed and centrifuged to precipitate proteins. All samples were assayed by LC-MS/MS using electrospray ionization. Analytical conditions are outlined in Appendix 1. The peak area response ratio (PARR) to internal standard was compared to the PARR at time 0 to determine the percent remaining at each time point. Half-lives were calculated using GraphPad software, fitting to a single-phase exponential decay equation.

in vitro [2] = assay: in vitro
Description: The objective of this study was to determine the stability of curcumin in human liver microsomes in the absence and presence of xanthohumol at a concentration of 10 μM, which is 10 fold higher than the previous study.
The objective of this study was to determine the stability of curcumin in human liver microsomes in the absence and presence of 10 μM xanthohumol.
as §1, with “μM. A” for “μM.”, “with 10” for “with 1”

[3] = both, human, microsomes, Half-life

O=c1ccc2ccc(O)cc2o1 [7-HC, 7-hydroxycoumarin] showed a half-life (in vitro [1]; human, microsomes) of 10 min, a microsomal CLint (in vitro [1]; human, microsomes) of 136 µL/min/mg and a microsomal CLint (in vitro [2]; both, human, microsomes, CLint) of 120 µL/min/mg. It also gave a half-life (in vitro [2]; [3]) of 12 min.

Work on COc1cc(C=CC(=O)CC(=O)C=Cc2ccc(O)c(OC)c2)ccc1O [Curcumin, 1,7-Bis(4-hydroxy-3-methoxyphenyl)-1,6-heptadiene-3,5-dione] yielded a half-life at 1 μM (in vitro [1]; human, microsomes) of 4.4 min, a microsomal CLint at 1 μM (in vitro [1]; human, microsomes) of 313 µL/min/mg and a half-life (in vitro [2]; both, human, microsomes, 1 μM) of under 10 min. For the same compound, the microsomal CLint at 1 μM (in vitro [2]; both, human, microsomes, CLint) was over 139 µL/min/mg, the microsomal CLint at 1 μM (in vitro [2]; both, human, microsomes, CLint (value in parentheses)) was 296 µL/min/mg and the half-life at 1 μM (in vitro [2]; [3]) was under 10 min. It also gave a half-life at 1 μM (in vitro [2]; both, human, microsomes, Half-life (value in parentheses)) of 4.7 min.

C[C@]12CC[C@H]3[C@@H](CCC4=CC(=O)CC[C@@]43C)[C@@H]1CC[C@@H]2O [Testosterone, testosterone] gave a microsomal CLint (in vitro [1]) of 74 µL/min/mg, a microsomal CLint (in vitro [2]; both, human, microsomes) of 57.7 µL/min/mg and a half-life (in vitro [2]; control compounds, human liver microsomes, separate reactions, Example 4) of 24 min.
